Source: patent US12508278B2, “Lipid nanoparticle compositions and methods of formulating the same” (ModernaTX, Inc., priority 2021, dated 2025)
Values belong to the molecule of their own block, whether it stands above or below them.

Experiments:
Assay type in all cases: physicochemical
[1] = IG (lipid-mRNA adduct impurity) in binary mixtures of RNA and Compound III, ion pair reversed phase HPLC; settings: for level of IG compared to control binary mixtures: 1 mM agent; for initial rate of IG formation: 5 mM agent, Compound III binaries
Text: To detect and quantify the amount of IG present in LNP formulations comprising polynucleotides and lipid, a protocol was developed (FIG. 2) that included (1) extraction of the polynucleotide molecules (e.g. precipitation, liquid: liquid extraction); (2) assessment of integrity (e.g. purity, length) of the isolated polynucleotides by known methods (e.g. fragment analyzer, gel electrophoresis); and (3) analysis of the isolated polynucleotides by HPLC.
(§1) RNA was extracted from the LNP formulation by precipitation in ammonium acetate in isopropanol; resuspended in water to target a final RNA concentration of 0.1 mg/mL; and assessed by fragment analyzer capillary electrophoresis and ion pair reversed phase HPLC (performed on a Thermo DNApac RP 100×2.1 mm column at 65° C., with mobile phases containing 50 mM dibutylammonium acetate and 100 mM triethylammonium acetate in water and acetonitrile). Elution with an acetonitrile gradient provided an RNA separation primarily driven by mRNA length and sensitive to any added hydrophobic elements. Two prominent peaks were apparent on the HPLC chromatogram (FIG. 2), including a “main peak” comprising non-adduct mRNA and an “IG” peak comprising mRNA with one or more covalent modifications. The mass fraction of RNA containing at least one lipid adduct was determined by integrating the area under the curve (AUC) of all RNA peaks (including products shorter than the full-length product, the full-length product, and the hydrophobic modified RNA) and taking the late-eluting region as an area percent of the total peak area.
Compound III was dissolved in ethanol at a concentration of 4 mg/mL, and the RNA diluted in sodium acetate buffer pH 5.5; the RNA and lipids were then mixed in 25% ethanol. Samples were held at 25° C., and the RNA was periodically extracted by precipitation in isopropanol and analyzed by ion pair reversed phase (FIGS. 5 and 6A, data marked by *).

[2] = IG in Compound III LNPs buffered with PBS or Tris
[3] = IG in Compound VI LNPs stored in PBS or Tris; settings: 20 mM Tris, 8% sucrose, pH 8 vs 1xPBS pH 7.2, stored at 5 C
[4] = IG in binary mixtures of RNA and Compound VI, ion pair reversed phase HPLC; settings: control binary mixture
Method: as §1
To determine if treatment with reducing agents or anti-oxidants confers reductions in the percentage of IG formed in binary mixtures of RNA and Compound VI, binary mixtures were prepared with RNA and Compound VI in which the RNA component was prepared with select reducing agents at 5 mM concentration and the percentage of IG in the resulting binary mixtures was quantified according to the protocol detailed in Example 1. The control binary mixtures of RNA and Compound VI contained IG at ˜55 percent after 1 day, ˜70 percent after 2 days, and ˜80 percent after 13 days. In contrast, treatment of binary mixtures of RNA and Compound VI with select reducing agents conferred IG at ˜45 percent after 1 day, ˜55% after 2 days, and ˜60-70% after 13 days (FIG. 17).

level of IG compared to control binary mixtures ([1]; 25 C, after 18 hours): reduced levels of IG
SMILES: O=C(O)CCCC[C@@H]1CCSS1 (racemic) [lipoic acid]

IG formation over time ([1]; chromatographically purified Compound III, up to 99% purity, no detectable N-oxide): still formed IG over time | percentage of IG ([1]; control binary mixture (Example 6), stored at 25 C, after 1 day): ~15% | percentage of IG ([1]; control binary mixture (Example 6), stored at 25 C, after 3 days): ~35% | percentage of IG ([1]; control binary mixture (Example 6), stored at 25 C, after 7 days): ~40% | percentage of IG ([1]; control binary mixture (Example 11), 25 C, after 18 hours): ~20% | percentage of IG ([1]; control binary mixture without agent (Example 7), 25 C, after 18 hours): ~35% | percentage of IG ([1]; control binary mixture without agent (Example 7), after 13 days at 25 C): ~45% | percentage of IG ([1]; control binary mixture, Compound III not pre-treated (Example 5), after 0 days): ~10% | percentage of IG ([1]; control binary mixture, Compound III not pre-treated (Example 5), after 5 days): ~40% | percentage of IG ([1]; control binary mixture, Compound III not pre-treated (Example 5), after 25 days): ~45% | percentage of IG, Tris compared to PBS ([2]; 100 mM Tris-HCl pH 7.4 vs 1xPBS): lower | percentage of IG over time ([2]; buffered with Tris (100 mM Tris-HCl pH 7.4), stored at 5 C or 20 C): around 10%
SMILES: CCCCCCCCCCCOC(=O)CCCCCN(CCO)CCCCCCCC(=O)OC(CCCCCCCC)CCCCCCCC [Compound III, heptadecan-9-yl 8-((2-hydroxyethyl)(6-oxo-6-(undecyloxy)hexyl)amino)octanoate]

percentage of IG, Tris compared to PBS [3]: lower | percentage of IG ([4]; after 1 day): ~55% | percentage of IG ([4]; after 2 days): ~70% | percentage of IG ([4]; after 13 days): ~80%
SMILES: CCCCCCCCCN(CCCCCCCCC)CCN(CCCCCCCCC)CC(=O)N1CCN(C(=O)CN(CCCCCCCCC)CCCCCCCCC)CC1 [Compound VI]

SMILES: Clc1ccc(C(c2ccc(Cl)cc2)C(Cl)(Cl)Cl)cc1 [DDT, dichlorodiphenyltrichloroethane]
level of IG compared to control binary mixtures ([1]; 25 C, after 18 hours): reduced levels of IG

level of IG compared to control binary mixtures ([1]; 25 C, after 18 hours): reduced levels of IG
SMILES: O[C@H](CS)[C@@H](O)CS [DTE, dithioerythritol]

level of IG compared to control binary mixtures ([1]; 25 C, after 18 hours): reduced levels of IG
SMILES: O[C@H](CS)[C@H](O)CS [DTT, dithiothreitol]

level of IG compared to control binary mixtures ([1]; 25 C, after 18 hours): reduced levels of IG
SMILES: CC(=O)N[C@@H](CS)C(=O)O [N-acetyl cysteine]
initial rate of IG formation [1]: effective at eliminating the fast initial rate of IG formation

SMILES: O=C(O)CCP(CCC(=O)O)CCC(=O)O [TCEP, tris(2-carboxyethyl)phosphine]
level of IG compared to control binary mixtures ([1]; 25 C, after 18 hours): reduced levels of IG

level of IG compared to control binary mixtures ([1]; 25 C, after 18 hours): reduced levels of IG
SMILES: NCCSSCCN [cystamine]

level of IG compared to control binary mixtures ([1]; 25 C, after 18 hours): reduced levels of IG
SMILES: N[C@@H](CCC(=O)N[C@@H](CS)C(=O)NCC(=O)O)C(=O)O [glutathione]

level of IG compared to control binary mixtures ([1]; 25 C, after 18 hours): reduced levels of IG
SMILES: N[C@@H](CCS)C(=O)O [homo cysteine, homocysteine]

SMILES: O=S([O-])S(=O)(=O)[O-].[K+].[K+] [potassium metabisulfite]
level of IG compared to control binary mixtures ([1]; 25 C, after 18 hours): reduced levels of IG | initial rate of IG formation [1]: effective at eliminating the fast initial rate of IG formation

level of IG compared to control binary mixtures ([1]; 25 C, after 18 hours): reduced levels of IG
SMILES: [BH4-].[Na+] [sodium borohydrate]

SMILES: O=S([O-])S(=O)(=O)[O-].[Na+].[Na+] [sodium metabisulfite]
initial rate of IG formation [1]: effective at eliminating the fast initial rate of IG formation | percentage of IG ([1]; higher concentrations of agent before formulation, removed by dialysis with 20 mM Tris, t=0 h and 24 hours): reduced

SMILES: O=C([O-])CS.[Na+] [sodium thioglycolate]
level of IG compared to control binary mixtures ([1]; 25 C, after 18 hours): reduced levels of IG

SMILES: O=S([O-])([O-])=S.[Na+].[Na+] [sodium thiosulfate]
level of IG compared to control binary mixtures ([1]; 25 C, after 18 hours): reduced levels of IG
